Data from patent US20240043427A1 (Gilead Sciences, Inc., priority 2020, published 2024).
pEC50, pIC50: −log10 of the molar value.

Tests used:
[1] = biological target: T1, CD73 (Homo sapiens (Human), UniProt P21589); format: biochemical; details: 1 mM NaH2PO4 in enzyme buffer, CD73 0.3 nM, AMP 15 uM
[2] = biological target: T1, CD73; assay: MDA-MB-231 Cell Based CD73 Activity Assay (DMEM); details: MDA-MB-231-GFP cells, DMEM medium with 10% human plasma, 200 uM AMP

T1 sequence (P21589 27-574): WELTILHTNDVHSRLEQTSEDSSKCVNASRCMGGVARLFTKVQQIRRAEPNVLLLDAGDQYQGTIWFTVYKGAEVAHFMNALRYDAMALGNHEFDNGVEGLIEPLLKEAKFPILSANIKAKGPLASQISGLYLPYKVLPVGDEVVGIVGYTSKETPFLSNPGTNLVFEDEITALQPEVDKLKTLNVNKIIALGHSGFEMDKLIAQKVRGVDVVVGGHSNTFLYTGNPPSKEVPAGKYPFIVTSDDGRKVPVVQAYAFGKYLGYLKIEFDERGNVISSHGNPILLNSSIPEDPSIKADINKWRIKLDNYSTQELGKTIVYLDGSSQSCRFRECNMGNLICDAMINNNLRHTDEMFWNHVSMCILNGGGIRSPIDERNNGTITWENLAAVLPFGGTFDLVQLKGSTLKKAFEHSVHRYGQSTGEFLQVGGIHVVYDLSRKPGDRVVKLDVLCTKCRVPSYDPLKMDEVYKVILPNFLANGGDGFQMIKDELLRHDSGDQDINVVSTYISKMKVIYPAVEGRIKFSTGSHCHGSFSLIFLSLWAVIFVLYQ

Compound | pIC50 [1] | pEC50 [2]
O=c1[nH]cc(-c2cc(N3C[C@@H](F)[C@@H](F)C3)c3ncc(F)n3n2)c(=O)[nH]1 [Example 177, 5-(8-((3R,4S)-3,4-difluoropyrrolidin-1-yl)-3-fluoroimidazo[1,2-b]pyridazin-6-yl)pyrimidine-2,4(1H,3H)-dione] | 8.14 | 7.48
CC1(C(F)(F)F)CCN(c2cc(-c3c[nH]c(=O)[nH]c3=O)nn3ccnc23)C1 (stereo not drawn) [Example 185, 5-[8-[3-methyl-3-(trifluoromethyl)pyrrolidin-1-yl]imidazo[1,2-b]pyridazin-6-yl]-1H-pyrimidine-2,4-dione] | 7.87 | 7.24
C[C@@]1(F)CCN(c2cc(-c3c[nH]c(=O)[nH]c3=O)nn3ccnc23)C1 [Example 186, 5-[8-[(3R)-3-fluoro-3-methyl-pyrrolidin-1-yl]imidazo[1,2-b]pyridazin-6-yl]-1H-pyrimidine-2,4-dione] | 8.12 | 7.65
COC1(C(F)(F)F)CCN(c2cc(-c3c[nH]c(=O)[nH]c3=O)nn3ccnc23)C1 (stereo not drawn) [Example 189, 5-[8-[3-methoxy-3-(trifluoromethyl)pyrrolidin-1-yl]imidazo[1,2-b]pyridazin-6-yl]-1H-pyrimidine-2,4-dione] | 7.74 | 7.31
O=c1[nH]cc(-c2cc(N3CCC4(CC4)C3)c3nccn3n2)c(=O)[nH]1 [Example 190, 5-[8-(5-azaspiro[2.4]heptan-5-yl)imidazo[1,2-b]pyridazin-6-yl]-1H-pyrimidine-2,4-dione] | 8.52 | 7.89
C[C@]1(F)CCN(c2cc(-c3c[nH]c(=O)[nH]c3=O)nn3ccnc23)C1 [Example 191, 5-[8-[(3S)-3-fluoro-3-methyl-pyrrolidin-1-yl]imidazo[1,2-b]pyridazin-6-yl]-1H-pyrimidine-2,4-dione] | 7.66 | 7.34
C[C@@H]1CN(c2cc(-c3c[nH]c(=O)[nH]c3=O)nn3ccnc23)C[C@H]1C(F)(F)F [Example 193, 5-[8-[(3S,4S)-3-methyl-4-(trifluoromethyl)pyrrolidin-1-yl]imidazo[1,2-b]pyridazin-6-yl]-1H-pyrimidine-2,4-dione] | 6.82 | 6.17
N#CC1(F)CCN(c2cc(-c3c[nH]c(=O)[nH]c3=O)nn3ccnc23)C1 (stereo not drawn) [Example 195, 1-[6-(2,4-dioxo-1H-pyrimidin-5-yl)imidazo[1,2-b]pyridazin-8-yl]-3-fluoro-pyrrolidine-3-carbonitrile] | 7.20 | 6.66
O=c1[nH]cc(-c2cc(N3CC[C@H](OC(F)(F)F)C3)c3nccn3n2)c(=O)[nH]1 [Example 196, 5-[8-[(3S)-3-(trifluoromethoxy)pyrrolidin-1-yl]imidazo[1,2-b]pyridazin-6-yl]-1H-pyrimidine-2,4-dione] | 7.01 | 6.61
O=c1[nH]cc(-c2cc(N3C[C@H](OC(F)F)C(F)(F)C3)c3nccn3n2)c(=O)[nH]1 [Example 201, 5-[8-[(4S)-4-(difluoromethoxy)-3,3-difluoro-pyrrolidin-1-yl]imidazo[1,2-b]pyridazin-6-yl]-1H-pyrimidine-2,4-dione] | 8.95 | 8.19
O=c1[nH]cc(-c2cc(N3CC(OC(F)F)C(F)(F)C3)c3nccn3n2)c(=O)[nH]1 (stereo not drawn) [Example 202, 5-[8-[4-(difluoromethoxy)-3,3-difluoro-pyrrolidin-1-yl]imidazo[1,2-b]pyridazin-6-yl]-1H-pyrimidine-2,4-dione] | 8.98 | 8.37
CN(C)C(=O)COC1CN(c2cc(-c3c[nH]c(=O)[nH]c3=O)nn3ccnc23)CC1(F)F (stereo not drawn) [Example 204, 2-[1-[6-(2,4-dioxo-1H-pyrimidin-5-yl)imidazo[1,2-b]pyridazin-8-yl]-4,4-difluoro-pyrrolidin-3-yl]oxy-N,N-dimethyl-acetamide] | 8.79 | 8.03
CC(=O)NC1CN(c2cc(-c3c[nH]c(=O)[nH]c3=O)nn3ccnc23)CC1(F)F (stereo not drawn) [Example 205, N-[1-[6-(2,4-dioxo-1H-pyrimidin-5-yl)imidazo[1,2-b]pyridazin-8-yl]-4,4-difluoro-pyrrolidin-3-yl]acetamide] | 8.35 | 7.80
O=C(NC1CN(c2cc(-c3c[nH]c(=O)[nH]c3=O)nn3ccnc23)CC1(F)F)OCC(F)(F)F (stereo not drawn) [Example 206, 2,2,2-trifluoroethyl N-[1-[6-(2,4-dioxo-1H-pyrimidin-5-yl)imidazo[1,2-b]pyridazin-8-yl]-4,4-difluoro-pyrrolidin-3-yl]carbamate] | 8.30 | 7.54
O=C(NC1CN(c2cc(-c3c[nH]c(=O)[nH]c3=O)nn3ccnc23)CC1(F)F)OCC(F)F (stereo not drawn) [Example 208, 2,2-difluoroethyl N-[1-[6-(2,4-dioxo-1H-pyrimidin-5-yl)imidazo[1,2-b]pyridazin-8-yl]-4,4-difluoro-pyrrolidin-3-yl]carbamate] | 8.23 | 7.59
O=C(NC1CN(c2cc(-c3c[nH]c(=O)[nH]c3=O)nn3ccnc23)CC1(F)F)c1ccc(C(F)(F)F)cc1 (stereo not drawn) [Example 210, N-[1-[6-(2,4-dioxo-1H-pyrimidin-5-yl)imidazo[1,2-b]pyridazin-8-yl]-4,4-difluoro-pyrrolidin-3-yl]-4-(trifluoromethyl)benzamide] | 8.34 | 7.61
O=C(NC1CN(c2cc(-c3c[nH]c(=O)[nH]c3=O)nn3ccnc23)CC1(F)F)c1ccc(C(F)(F)F)cn1 (stereo not drawn) [Example 211, N-[1-[6-(2,4-dioxo-1H-pyrimidin-5-yl)imidazo[1,2-b]pyridazin-8-yl]-4,4-difluoro-pyrrolidin-3-yl]-5-(trifluoromethyl)pyridine-2-carboxamide] | 8.63 | 7.96
CC1(C)CN(c2cc(-c3c[nH]c(=O)[nH]c3=O)nc3ccnn23)CC1(F)F [Example 216, 5-(7-(3,3-difluoro-4,4-dimethylpyrrolidin-1-yl)pyrazolo[1,5-a]pyrimidin-5-yl)pyrimidine-2,4(1H,3H)-dione] | 8.10 | 7.50
O=c1[nH]cc(-c2cc(N3CC(F)(F)C4(CC4)C3)n3ncc(Cl)c3n2)c(=O)[nH]1 [Example 218, 5-(3-chloro-7-(7,7-difluoro-5-azaspiro[2.4]heptan-5-yl)pyrazolo[1,5-a]pyrimidin-5-yl)pyrimidine-2,4(1H,3H)-dione] | 8.48 | 6.34
CC1(C)CN(c2cc(-c3c[nH]c(=O)[nH]c3=O)nc3c(F)cnn23)CC1(F)F [Example 219, 5-(7-(3,3-difluoro-4,4-dimethylpyrrolidin-1-yl)-3-fluoropyrazolo[1,5-a]pyrimidin-5-yl)pyrimidine-2,4(1H,3H)-dione] | 8.08 | 7.20

The next lines start with the values.

pIC50 [1] | pEC50 [2] | Compound
8.56 | 7.90 | O=c1[nH]cc(-c2cc(N3CC[C@@H](OC(F)(F)F)C3)c3nccn3n2)c(=O)[nH]1 [Example 187, 5-[8-[(3R)-3-(trifluoromethoxy)pyrrolidin-1-yl]imidazo[1,2-b]pyridazin-6-yl]-1H-pyrimidine-2,4-dione]
7.76 | 7.20 | COCC1(F)CCN(c2cc(-c3c[nH]c(=O)[nH]c3=O)nn3ccnc23)C1 (stereo not drawn) [Example 188, 5-[8-[3-fluoro-3-(methoxymethyl)pyrrolidin-1-yl]imidazo[1,2-b]pyridazin-6-yl]-1H-pyrimidine-2,4-dione]
8.48 | 6.33 | COc1ccc(C2CN(c3cc(-c4c[nH]c(=O)[nH]c4=O)nn4ccnc34)CC2(F)F)cc1 (stereo not drawn) [Example 194, 5-[8-[3,3-difluoro-4-(4-methoxyphenyl)pyrrolidin-1-yl]imidazo[1,2-b]pyridazin-6-yl]-1H-pyrimidine-2,4-dione]
8.52 | 7.99 | COc1ncc(-c2cc(N3CC(OCC(F)(F)F)C(F)(F)C3)c3nccn3n2)c(OC)n1 (stereo not drawn) [Example 203, 8-[3,3-difluoro-4-(2,2,2-trifluoroethoxy)pyrrolidin-1-yl]-6-(2,4-dimethoxypyrimidin-5-yl)imidazo[1,2-b]pyridazine]
8.22 | 7.69 | O=C(NC1CN(c2cc(-c3c[nH]c(=O)[nH]c3=O)nn3ccnc23)CC1(F)F)OCC1CC1 (stereo not drawn) [Example 207, cyclopropylmethyl N-[1-[6-(2,4-dioxo-1H-pyrimidin-5-yl)imidazo[1,2-b]pyridazin-8-yl]-4,4-difluoro-pyrrolidin-3-yl]carbamate]
8.55 | 7.62 | O=C(NC1CN(c2cc(-c3c[nH]c(=O)[nH]c3=O)nn3ccnc23)CC1(F)F)c1ccccc1 (stereo not drawn) [Example 209, N-[1-[6-(2,4-dioxo-1H-pyrimidin-5-yl)imidazo[1,2-b]pyridazin-8-yl]-4,4-difluoro-pyrrolidin-3-yl]benzamide]
8.85 | 7.92 | O=c1[nH]cc(-c2cc([C@H]3C[C@@H]3c3ccc(C(F)F)cc3)n3nccc3n2)c(=O)[nH]1 [Example 215, 5-(7-((1S,2S)-2-(4-(difluoromethyl)phenyl)cyclopropyl)pyrazolo[1,5-a]pyrimidin-5-yl)pyrimidine-2,4(1H,3H)-dione]
6.95 | 6.23 | CCc1cnn2c(N3CC(C)(C)C(F)(F)C3)cc(-c3c[nH]c(=O)[nH]c3=O)nc12 [Example 217, 5-(7-(3,3-difluoro-4,4-dimethylpyrrolidin-1-yl)-3-ethylpyrazolo[1,5-a]pyrimidin-5-yl)pyrimidine-2,4(1H,3H)-dione]
8.27 | 6.94 | CC1(C)CN(c2cc(-c3c[nH]c(=O)[nH]c3=O)nc3c(Cl)cnn23)CC1(F)F [Example 220, 5-(3-chloro-7-(3,3-difluoro-4,4-dimethylpyrrolidin-1-yl)pyrazolo[1,5-a]pyrimidin-5-yl)pyrimidine-2,4(1H,3H)-dione]
7.88 | 7.13 | CC1CN(c2cc(-c3c[nH]c(=O)[nH]c3=O)nc3ccnn23)CC1(F)F (stereo not drawn) [Example 221, 5-(7-(3,3-difluoro-4-methylpyrrolidin-1-yl)pyrazolo[1,5-a]pyrimidin-5-yl)pyrimidine-2,4(1H,3H)-dione]
